Experimental data published in patent publication US4897503A, “1,1,2-triaryl-1-alkene derivatives” (Taiho Pharmaceutical, priority 1986, dated 1990).
Read-outs that look alike come from different tables or passages of the source.

Columns and labels:
[1] = vs tamoxifen; cited from earlier work
[2] = system: experimental hormone-dependent tumor cells; settings: vs tamoxifen; cited from earlier work
[3] = Acute toxicity test (oral and intraperitoneal, Up-and-Down method); set-up: species or system mouse (ddY strain); settings: mouse, in vivo, 6-week old male ddY mice, 3 weeks observation
Procedure: The acute oral and intraperitoneal toxicity of these compounds were investigated in 6-week old male ddY strain mice. In the oral toxicity study, each test compound was suspended or dissolved in an aqueous solution containing 0.5% of carboxymethylcellulose and 0.5% of Tween 80 and was administered at a dose of 4 ml/100 g. In the intraperitoneal toxicity study, each test compound was suspended or dissolved in physiological saline containing 0.5% of Tween 80 and was administered at a dose of 2 ml/100 g.

[4] = system: mammary cancer induced by 7,12-dimethylbenzanthracene (DMBA); assay: Effect on DMBA-induced mammary cancer: inhibition of appearance of new tumor; type: in vivo, rat (Sprague-Dawley, female); settings: for Inhibition of appearance of new tumor: 6 times a week for 3 weeks, 15 animals
Procedure: (§1) The experiments were performed in 7-week-old female Sprague-Dawley rats bearing mammary cancer which had been induced by oral administration of 7,12-dimethylbenzanthracene (DMBA) according to the method described in European Journal of Cancer and Clinical Oncology 11, 571 (1975) and Cancer Research 26, 2169 (1966). The inhibitory effect of each test compound on this cancer was investigated.
(§2) Each test compound was suspended in an aqueous solution containing 0.5% of carboxymethylcellulose and 0.5% of Tween 80 and the suspension was orally administered by gastric gavage 6 times a week for 3 consecutive weeks. Once a week and on the 21st day, the number of induced tumors was counted and the surface area of tumors was measured. The percent increase in surface area relative to the surface area on the first day of administration was calculated and the result was compared with the result in the control group. The inhibitory effects on the appearance of new tumor are shown in Table 7 and the inhibitory effects on the enlargement of the tumor are shown in Table 8. The inhibition of appearance of new tumor (%) was calculated according to the formula: 100-(N/M)×100 where N is the number of newly appeared tumors in test group and M is the number of newly appeared tumors in control group.

[5] = system: mammary cancer induced by 7,12-dimethylbenzanthracene (DMBA); assay: Effect on DMBA-induced mammary cancer: inhibition of tumor growth; type: in vivo, rat (Sprague-Dawley, female); settings: 6 times a week for 3 weeks, 15 animals
Procedure: as §1, §2

uterus = assay: Anti-uterotrophic effect (inhibition of uterine weight gain in immature rats); type: in vivo, rat (Sprague-Dawley, female; settings: Rattus norvegicus, 504 h, read-out: ED50 (50% inhibition of uterine weight gain)
Description: The antiuterotophic activity of each test compound was studied using immature 4-week-old female Sprague-Dawley rats, according to the method described in Methods in Hormone Research, vol. 2, Academic Press p. 707 (1962).
Each test compound was suspended in a vehicle solution (i.e., an aqueous solution containing 0.5% of carboxymethylcellulose and 0.5% of Tween 80) and the suspension was orally administered using a stomach tube 6 times a week for 3 consecutive weeks at various doses. The animals were autopsied one day after the final administration and the uterus was weighed.
The percent inhibition of uterine weight gain was calculated by the formula
Percent inhibition=(A-C)×100/(A-B)
where A is the mean value of the uterine weight of the control which received the vehicle solution, B is that of the ovariectomized control (i.e., animals ovariectomized at the age of four weeks and thereafter treated with the vehicle solution for 3 weeks) and C is that of the animals which received each dose of each test compound. Then, the dose of each test compound causing a 50% inhibition (ED50) was calculated from the dose-response curve.

[6] = ip, intraperitoneal, read-out: LD50 intraperitoneal

Compound | effectiveness in vivo, in words [1] | antitumor activity in vitro, in words [2] | LD50 at 504 h [3, 6] | LD50 at 504 h ([3]; oral, read-out: LD50 oral) | Inhibition of appearance of new tumor ([4]; 0.1 mg/kg/day p.o.) | Inhibition of appearance of new tumor ([4]; 0.3 mg/kg/day p.o.) | Inhibition of tumor growth (on day 21) ([5]; 0.1 mg/kg/day p.o.) | Inhibition of tumor growth (on day 21) ([5]; 0.3 mg/kg/day p.o.) | ED50 (uterus; po) | inhibition of appearance of new mammary cancer, in words ([4]; 0.1 mg/kg/day) | ED50 (uterus; oral, 6 times a week for 3 weeks, immature female SD rats, 7 animals)
CC/C(=C(\c1ccc(O)cc1)c1ccc(OCCN(C)C)cc1)c1ccccc1 [4-hydroxytamoxifen] | inferior in effectiveness to tamoxifen | more potent antitumor activity than tamoxifen |  |  |  |  |  |  |  |  | 
CC/C(=C(/c1ccc(OCCN(C)C)cc1)c1ccc(OP(=O)(O)O)cc1)c1ccccc1 [Compound 1, (E)-4-[1-[4-[2-(Dimethylamino)ethoxy]phenyl]-2-phenyl-1-butenyl]-phenyl phosphate] |  |  | 223 mg/kg | > 2000 mg/kg | 56.7% | 54.7% | 26.5% | 42.3% | 0.076 mg/kg |  | 
CCC(=C(c1ccc(OCCN(C)C)cc1)c1ccc(OP(=O)(O)O)cc1)c1ccc(C(C)C)cc1 [Compound 5] |  |  | 354 mg/kg | > 2000 mg/kg | 46.7% | 48.5% | 26.5% | 50.2% | 0.097 mg/kg |  | 
CCOc1ccc(/C(CC)=C(/c2ccc(OCCN(C)C)cc2)c2ccc(OP(=O)(O)O)cc2)cc1 [Compound 7] |  |  | 223 mg/kg | > 2000 mg/kg |  |  |  |  | 0.026 mg/kg |  | 
CC/C(=C(\c1ccccc1)c1ccc(OCCN(C)C)cc1)c1ccccc1 [Tamoxifen, reference compound] |  |  | 177 mg/kg | > 2000 mg/kg | -7.7% | 21.0% | 4.7% | 39.0% |  | ineffective | 0.203 mg/kg
